# US20110053914A1, “Pharmaceutical Combination Comprising 6-Dimethylaminomethyl-1-(3-methoxy-phenyl)-cyclohexane-1,3-diol or 6-Dimethylaminomethyl-1-(3-hydroxy-phenyl)-cyclohexane-1,3-diol and an Antiepileptic” (Gruenenthal GmbH, priority 2009, published 2011)
# Counter-ions that a name gives are not always drawn. Like-named read-outs stand apart in the source and are kept apart here.
# What was measured:
# Type in all cases: in vivo, rat
# male Sprague Dawley rats = experiment: Paw incision model in rats (post-operative pain), electronic von Frey; conditions: intraperitoneal, at maximum effect; effective dose at 25% of the maximum effect; tactile hyperalgesia
# Description: The paw incision model (Brennan, T. J., Vandermeulen, E. P., Gebhart, G. F., Pain 64, (1996), 493-501) is an animal model of post-operative pain.
# In male Sprague Dawley rats (body weight 180-200 g) a longitudinal incision of 1 cm length is made, starting 0.5 cm from the proximal end of the paw, through the skin and fascia. Using bent tweezers the muscle is lifted up from the bottom and incised lengthwise, flat and centered using a scalpel. The muscle is spreaded bluntly with the tweezers. Subsequently, the wound is closed with two sutures.
# The tactile hyperalgesia two hours after the operation is determined using an electronic von Frey filament (Somedic Sales AB, Hörby, Sweden). […] In order to investigate the sensitivity to the mechanical stimulus, the paw retraction threshold is determined on the ipsilateral paw as well as in the same position on the untreated contralateral paw and is given in grams of the applied pressure. The retraction threshold per paw is measured four times and the median value is then determined. The retraction threshold of the ipsi- and contralateral paw is measured prior administration (pre-test value) and at several times after administration of a substance, namely (15, 30 and 60 minutes after administration). […]
# From the median values the Maximum Positive Effect (% MPE) is determined according to the following formula: […]
# rats [1] = experiment: Spinal nerve ligation (Chung model for mononeuropathic pain) in rats, anti-allodynic testing; conditions: 30 min after A; A 4 mg/kg iv; B 10 mg/kg iv 20 min before A or vehicle; tactile allodynia
# Protocol: Under pentobarbital anaesthesia (Narcoren®, 60 mg/kg i.p., Merial GmbH, Hallbergmoos, FRG), the L5, L6 spinal nerves were tightly ligated (Kim and Chung, Pain 1992; 50: 355). The left L5 and L6 spinal nerves were exposed by removing a small piece of the paravertebral muscle and a part of the left spinous process of the L5 lumbar vertebra. The L5 and L6 spinal nerves were then carefully isolated and tightly ligated with silk (NC-silk black, USP 5/0, metric 1, Braun Melsungen AG, Melsungen, FRG). After checking hemostasis, the muscle and the adjacent fascia were closed with sutures and the skin was closed with sutures.
# After operation, animals were allowed to recover for one week. Animals develop tactile allodynia which is stable for at least five weeks. […] Threshold for tactile allodynia was measured with an electronic von Frey anesthesiometer (Somedic, Sweden). […] The median of the withdrawal threshold for each animal at a given time is calculated from five individual stimulations with the electronic von Frey filament. Withdrawal thresholds of the injured paws are expressed as % maximal possible effect (% MPE) comparing predrug threshold of Chung-animals (=0% MPE) and control threshold of sham-animals (=100% MPE). […] The effect of each compound and vehicle is calculated for each testing time point (e.g. 0.5, 1, 3 h post administration) as interindividual % MPE value (±SEM). […]
# rats [2] = experiment: Randall-Selitto test in rats (carrageenan inflammatory pain); conditions: for ED50: Rattus norvegicus, 0.25 h
# Protocol: The weight ratios of the components (a) and (b) that will lead to a supra-additive effect (synergistic effect) of the inventive pharmaceutical composition may be determined via the test of Randall and Selitto as described in Arch. Int. Pharmacodyn., 1957, 111: 409 to 419, which is a model for inflammatory pain. The respective part of the literature is hereby incorporated by reference and forms part of the present disclosure.
# Acute inflammation was induced by an intraplantar injection of 0.1 ml of a carrageenan solution (0.5% in distilled water) into one hind paw. The mechanical nociceptive threshold was measured 4 hours after carrageenan injection using an Algesiometer (Ugo Basile, Italy). The device generates a mechanical force with a linear increase over time. The force is applied to the dorsal surface of the inflamed rat hind paw via a cone-shaped stylus with a rounded tip (2 mm tip diameter). The nociceptive threshold is defined as the force (in grams) at which the rat vocalises (cut-off force 250 g). The mechanical nociceptive threshold is measured at different timepoints after the drug or vehicle administration. The antinociceptive and antihyperalgesic activity of the tested substance is expressed as percentages of the maximal possible effect (% MPE). The group size is n=10.
# The interactions studies presented herein were performed using equieffective doses of the two components, calculated from the ratio of the respective ED50 values of the components if administered alone.
# The application route was intravenous (i.v.) for Axomadol hydrochloride (A) and intraperitoneal (i.p.) for the anticonvulsants Lamotrigine, Lacosamide, Levetiracetam, Retigabine and Carbamazepine. […] According to their respective timepoint of peak effect, A was applied 15 min and the anticonvulsant component also 15 min before timepoint of measurement of the interaction-experiments (i.e. both components were applied simultaneously). Thus, the time point of ED50 calculation of the combination corresponds to the timepoint of the peak effect of the respective compound.
# [3] = ip, i.p., 15 min p. appl. (peak effect), read-out: ED50 [mg/kg] of the anticonvulsant alone
SMILES,ED50 (rats [2]; [3]),"Time point of peak effect p. appl. (rats [2]; anticonvulsant alone, i.p.)",further results
"COc1cccc([C@@]2(O)C[C@H](O)CC[C@@H]2CN(C)C)c1 (racemic) [A, (1RS,3RS,6RS)-6-dimethylaminomethyl-1-(3-methoxy-phenyl)-cyclohexane-1,3-diol hydrochloride]",,,"ED25 [mg/kg] (confidence interval) of the individual substance (male Sprague Dawley rats): 9.15 mg/kg; Effect % MPE (time after administration of A) (rats [1]): 29 ± 6 (30 min) % MPE; Time point of peak effect p. appl. (rats [2]; A alone, i.v., timepoint of first measurement): 15 min; ED50 (rats [2]; iv, i.v., 15 min p. appl. (peak effect), read-out: ED50 [mg/kg] of A alone): 15.3 mg/kg; ED50 [mg/kg] of A alone (rats [2]; i.v., 15 min p. appl. (peak effect), hydrochloride): 15.3 mg/kg"
CC(C)C[C@H](CN)CC(=O)O [(S)-pregabaline],,,ED25 [mg/kg] (confidence interval) of the individual substance (male Sprague Dawley rats): 18.8 mg/kg
"NCC1(CC(=O)O)CCCCC1 [B, Gabapentin hydrochloride]",,,Effect % MPE (time after administration of A) (rats [1]): 16 ± 5 (30 min) % MPE
NC(=O)N1c2ccccc2C=Cc2ccccc21 [Carbamazepine],30 mg/kg,15 min,
COC[C@@H](NC(C)=O)C(=O)NCc1ccccc1 [Lacosamide],35.9 mg/kg,15 min,"ED50 [mg/kg] of the anticonvulsant alone (rats [2]; i.p., 15 min p. appl. (peak effect)): 35.9 mg/kg"
Nc1nnc(-c2cccc(Cl)c2Cl)c(N)n1 [Lamotrigine],35.3 mg/kg,15 min,
CC[C@@H](C(N)=O)N1CCCC1=O [Levetiracetam],986 mg/kg,15 min,
CCOC(=O)Nc1ccc(NCc2ccc(F)cc2)cc1N [Retigabine],5.09 mg/kg,15 min,
